pEC50: −log10 of the molar value.
Assays:
human TGR5 (h-TGR5) = biological target: T1, human TGR5 (h-TGR5) (Homo sapiens, UniProt Q8TDU6); test: TGR5/CRE-Luciferiase Assay (HEK 293 hTGR5/CRE-Luc cells); format: cell-based; details: h-TGR5 CRE-Luc EC50, Table 1; read-out: CRE-Luc (EC50)
T1 construct: expressed in transfected cells
T1 sequence (Q8TDU6 1-330): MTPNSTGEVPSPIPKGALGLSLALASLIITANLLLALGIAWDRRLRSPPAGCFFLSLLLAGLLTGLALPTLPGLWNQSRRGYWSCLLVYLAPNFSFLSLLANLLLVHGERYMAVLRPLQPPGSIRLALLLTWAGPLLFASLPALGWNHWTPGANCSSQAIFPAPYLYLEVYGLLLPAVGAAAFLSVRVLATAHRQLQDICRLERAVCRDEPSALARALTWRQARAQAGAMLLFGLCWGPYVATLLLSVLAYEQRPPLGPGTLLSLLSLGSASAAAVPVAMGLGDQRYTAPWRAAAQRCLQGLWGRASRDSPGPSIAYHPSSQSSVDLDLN
Summary of the method: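 HEK293 cells stably carrying hTGR5 and a CRE-luciferase reporter were exposed to serially diluted compounds (diluted in DMEM with 5% DMSO) for 6 h. Cells were then lysed in luciferase buffer, luminescence was read, and EC50 values were derived from dose-response curves.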

h-TGR5 = biological target: T2, h-TGR5 (Homo sapiens, UniProt Q8TDU6); test: TGR5 cAMP Assay using Cisbio cAMP Dynamic2 htrf kit (hTGR5CRE-luc HEK 293 cells); format: cell-based; details: h-TGR5 cAMP EC50, Table 1; read-out: cAMP (EC50)
T2 construct: expressed in transfected cells
T2 sequence (Q8TDU6 1-330): T1 sequence (Q8TDU6 1-330)
Summary of the method: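 […], 4000 hTGR5CRE-luc HEK 293 cells per well, with 0.5 mM IBMX and d2-cAMP, were incubated 30 min at room temperature with compounds in 8-point half-log series, in quadruplicate.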

Row | Compound | pEC50 (human TGR5 (h-TGR5)) | pEC50 (h-TGR5)
1 | COc1cc(-n2c(C(C)(C)c3cccc(S(C)(=O)=O)c3)cnc2SCc2c(F)cc(C(=O)O)cc2F)ccc1F [3,5-difluoro-4-{[(1-[4-fluoro-3-(methyloxy)phenyl]-5-{1-methyl-1-[3-(methylsulfonyl)phenyl]ethyl}-1H-imidazol-2-yl)thio]methyl}benzoic acid] | 6.00 to 7.00 | 6.00 to 7.00
2 | COc1cc(C(C)(C)c2cnc(SCc3ccc(S(=O)(=O)NC(=O)NN4CCCC4)cc3Cl)n2-c2ccc(F)cc2F)ccc1Cl [3-chloro-4-({[5-{1-[4-chloro-3-(methyloxy)phenyl]-1-methylethyl}-1-(2,4-difluorophenyl)-1H-imidazol-2-yl]thio}methyl)-N-[(pyrrolidin-1-ylamino)carbonyl]benzenesulfonamide] | 6.00 to 7.00 | 6.00 to 7.00
3 | CC(C)(c1ccc(Cl)c(Cl)c1)c1cnc(SCc2c(F)cc(C(=O)NO)cc2F)n1-c1ccc(F)cc1 [4-[({5-[1-(3,4-dichlorophenyl)-1-methylethyl]-1-(4-fluorophenyl)-1H-imidazol-2-yl}thio)methyl]-3,5-difluoro-N-hydroxybenzamide] | > 7.00 | > 7.00
4 | COC(=O)c1cc(CSc2ncc(C(C)(C)c3ccc(Cl)c(Cl)c3)n2-c2ccc(F)c(OC)c2)ccc1C#CCNC(=N)N [methyl 2-(3-{[amino(imino)methyl]amino}prop-1-yn-1-yl)-5-[({5-[1-(3,4-dichlorophenyl)-1-methylethyl]-1-[4-fluoro-3-(methyloxy)phenyl]-1H-imidazol-2-yl}thio)methyl]benzoate] | 6.00 to 7.00 | 6.00 to 7.00
5 | 4-({[5-{1-[4-chloro-3-(methyloxy)phenyl]-1- methylethyl}-1-(4-fIuorophenyl)-1H-imidazol- 2-yl]thio}methyl)-3,5-difluoro-N-[(pyrrolidin- 1-ylamino)carbonyl]benzenesulfonamide | > 7.00 | > 7.00
6 | COc1ccc(C(C)(C)c2cnc(SCc3cc(-c4nnn[nH]4)c(Cl)cc3Cl)n2-c2ccc(F)cc2)cc1Cl [5-[2,4-dichloro-5-({[5-{1-[3-chloro-4-(methyloxy)phenyl]-1-methylethyl}-1-(4-fluorophenyl)-1H-imidazol-2-yl]thio}methyl)phenyl]-1H-tetrazole] | > 7.00 | 6.00 to 7.00
7 | CC(C)(c1ccc(F)c(F)c1)c1cnc(SCc2ccc(S(=O)(=O)NC(=O)NN3CCCC3)cc2Cl)n1-c1ccc(F)cc1F [3-chloro-4-[({1-(2,4-difluorophenyl)-5-[1-(3,4-difluorophenyl)-1-methylethyl]-1H-imidazol-2-yl}thio)methyl]-N-[(pyrrolidin-1-ylamino)carbonyl]benzenesulfonamide] | 6.00 to 7.00 | 5.00 to 6.00
8 | COc1ccc(C(C)(C)c2cnc(SCc3ccc(C(N)=O)cc3F)n2-c2ccc(F)cc2)cc1OC [4-({[5-{1-[3,4-bis(methyloxy)phenyl]-1-methylethyl}-1-(4-fluorophenyl)-1H-imidazol-2-yl]thio}methyl)-3-fluorobenzamide] | 6.00 to 7.00 | > 7.00
9 | CC(C)(c1ccc(Cl)c(Cl)c1)c1cnc(SCc2cc(-c3nnn[nH]3)ccc2Cl)n1-c1ccc(F)cc1 [5-{4-chloro-3-[({5-[1-(3,4-dichlorophenyl)-1-methylethyl]-1-(4-fluorophenyl)-1H-imidazol-2-yl}thio)methyl]phenyl}-1H-tetrazole] | 6.00 to 7.00 | 6.00 to 7.00
10 | COc1cc(C(C)(C)c2cnc(SCc3ccc(C(=O)NCS(=O)(=O)O)cc3F)n2-c2ccc(F)cc2)ccc1Cl [({[4-({[5-{1-[4-chloro-3-(methyloxy)phenyl]-1-methylethyl}-1-(4-fluorophenyl)-1H-imidazol-2-yl]thio}methyl)-3-fluorophenyl]carbonyl}amino)methanesulfonic acid] | > 7.00 | > 7.00
11 | COc1ccc(C(C)(C)c2cnc(COc3c(F)cccc3Cl)n2-c2ccc(F)cc2)cc1OC [5-{1-[3,4-bis(methyloxy)phenyl]-1-methylethyl}-2-{[(2-chloro-6-fluorophenyl)oxy]methyl}-1-(4-fluorophenyl)-1H-imidazole] | > 7.00 | > 7.00
12 | CCOC(=O)NS(=O)(=O)c1ccc(CSc2ncc(C(C)(C)c3ccc(S(N)(=O)=O)c(Cl)c3)n2-c2ccc(F)cc2)c(Cl)c1 [ethyl {[4-({[5-{1-[4-(aminosulfonyl)-3-chlorophenyl]-1-methylethyl}-1-(4-fluorophenyl)-1H-imidazol-2-yl]thio}methyl)-3-chlorophenyl]sulfonyl}carbamate] | 6.00 to 7.00 | > 7.00
13 | CC(C)(c1ccc(Cl)c(Cl)c1)c1cnc(CCc2c(F)cc(C(=O)NCCS(=O)(=O)O)cc2Cl)n1-c1ccc(F)cc1 [2-({[3-chloro-4-(2-{5-[1-(3,4-dichlorophenyl)-1-methylethyl]-1-(4-fluorophenyl)-1H-imidazol-2-yl}ethyl)-5-fluorophenyl]carbonyl}amino)ethanesulfonic acid] | > 7.00 | > 7.00
14 | COc1cc(C(C)(C)c2cnc(SCc3ccc(S(=O)(=O)NC(=O)NN4CCCC4)cc3Cl)n2-c2ccc(F)cc2)ccc1S(N)(=O)=O [4-({[5-{1-[4-(aminosulfonyl)-3-(methyloxy)phenyl]-1-methylethyl}-1-(4-fluorophenyl)-1H-imidazol-2-yl]thio}methyl)-3-chloro-N-[(pyrrolidine-1-ylamino)carbonyl]benzenesulfonamide] | 6.00 to 7.00 | 6.00 to 7.00
15 | CC(C)(c1ccc(Cl)c(Cl)c1)c1cnc(SCc2ccc(-c3nnn[nH]3)cc2F)n1-c1ccc(F)cc1 [5-{4-[({5-[1-(3,4-dichlorophenyl)-1-methylethyl]-1-(4-fluorophenyl)-1H-imidazol-2-yl}thio)methyl]-3-fluorophenyl}-1H-tetrazole] | 6.00 to 7.00 | 6.00 to 7.00
16 | CC(C)(c1ccc(Cl)c(Cl)c1)c1cnc(SCc2ccc(F)c(S(N)(=O)=O)c2)n1-c1ccc(F)cc1 [5-[({5-[1-(3,4-dichlorophenyl)-1-methylethyl]-1-(4-fluorophenyl)-1H-imidazol-2-yl}thio)methyl]-2-fluorobenzenesulfonamide] | > 7.00 | 6.00 to 7.00
17 | COc1cc(C(C)(C)c2cnc(SCc3c(F)cc(OCc4nnn[nH]4)cc3F)n2-c2ccc(F)cc2)ccc1Cl [5-({[4-({[5-{1-[4-chloro-3-(methyloxy)phenyl]-1-methylethyl}-1-(4-fluorophenyl)-1H-imidazol-2-yl]thio}methyl)-3,5-difluorophenyl]oxy}methyl)-1H-tetrazole] | > 7.00 | > 7.00
18 | CC(C)(c1ccc2onc(N)c2c1)c1cnc(SCc2c(F)cc(C(=O)NC(CCCNC(=N)N)C(=O)O)cc2Cl)n1-c1ccc(F)cc1 [N-2-({4-[({5-[1-(3-amino-1,2-benzisoxazol-5-yl)-1-methylethyl]-1-(4-fluorophenyl)-1H-imidazol-2-yl}thio)methyl]-3-chloro-5-fluorophenyl}carbonyl)-D-arginine] | > 7.00 | > 7.00
19 | COc1cc(C(C)(C)c2cnc(SCc3c(F)cc(-c4nnn[nH]4)cc3F)n2-c2ccc(F)cc2)ccc1Cl [5-[4-({[5-{1-[4-chloro-3-(methyloxy)phenyl]-1-methylethyl}-1-(4-fluorophenyl)-1H-imidazol-2-yl]thio}methyl)-3,5-difluorophenyl]-1H-tetrazole] | > 7.00 | > 7.00
20 | O=C(O)c1cc(F)c(CSc2ncc(C3(c4ccc(Cl)c(Cl)c4)CC3)n2-c2ccc(F)cc2)c(F)c1 [4-[({5-[1-(3,4-dichlorophenyl)cyclopropyl]-1-(4-fluorophenyl)-1H-imidazol-2-yl}thio)methyl]-3,5-difluorobenzoic acid] | 6.00 to 7.00 | 6.00 to 7.00
21 | COc1cc(-n2c(C(C)(C)c3ccc(S(N)(=O)=O)c(Cl)c3)cnc2SCc2c(F)cc(C(=O)NCCS(=O)(=O)O)cc2F)ccc1F [2-{[(4-{[(5-{1-[4-(aminosulfonyl)-3-chlorophenyl]-1-methylethyl}-1-[4-fluoro-3-(methyloxy)phenyl]-1H-imidazol-2-yl)thio]methyl}-3,5-difluorophenyl)carbonyl]amino}ethanesulfonic acid] | > 7.00 | > 7.00
22 | COc1cc(C(C)(C)c2cnc(SCc3cc(C(=O)O)ccc3Cl)n2-c2ccc(F)cc2)ccc1Cl [4-chloro-3-({[5-{1-[4-chloro-3-(methyloxy)phenyl]-1-methylethyl}-1-(4-fluorophenyl)-1H-imidazol-2-yl]thio}methyl)benzoic acid] | > 7.00 | > 7.00
23 | COc1ccc(C(C)(C)c2cnc(SCc3c(F)cccc3C(F)(F)F)n2-c2ccc(F)cc2)cc1OC [5-{1-[3,4-bis(methyloxy)phenyl]-1-methylethyl}-1-(4-fluorophenyl)-2-({[2-fluoro-6-(trifluoromethyl)phenyl]methyl}thio)-1H-imidazole] | > 7.00 | > 7.00
24 | CC(C)(c1ccc(Cl)c(Cl)c1)c1cnc(SCc2c(F)cccc2Cl)n1-c1ccc(F)c(F)c1 [2-{[(2-chloro-6-fluorophenyl)methyl]thio}-5-[1-(3,4-dichlorophenyl)-1-methylethyl]-1-(3,4-difluorophenyl)-1H-imidazole] | > 7.00 | 6.00 to 7.00
